Reference: PMC10439230 (Scientific Reports, 2023)

Key:
[1] = test system: MRC-5 normal embryonic lung fibroblast cell line; test: Cytotoxic activity assay (MTT), normal cells; type: cell-based; settings: Homo sapiens, MRC5, 48 h exposure, read-out: Cell lines, IC50 (μM) MRC-5
Description: (§1) The synthetic compounds were screened for their cytotoxic activity using standard MTT or XTT methods[30] against a panel of nine human cancer cell lines and one normal cell line, including MDA-MB-231 (triple-negative breast cancer), T-47D (hormone-dependent breast cancer), HepG2 (hepatocellular carcinoma), A549 (lung adenocarcinoma), H69AR (multidrug-resistant small cell lung carcinoma), HuCCA-1 (cholangiocarcinoma derived from a patient), HeLa (cervical carcinoma), and two leukemia cell lines, HL-60 (acute promyelocytic leukemia) and MOLT-3 (T cell acute lymphoblastic leukemia). MRC-5 normal embryonic lung fibroblast cell line was used to represent normal cells. Chemotherapeutic drugs, doxorubicin and etoposide, were used as positive controls.
(§2) The cells were seeded into 96-well plates (100 µL for adherent cells and 75 µL for suspended cells) at a density of 5000–20,000 cells per well, depending on their growth rates. Adherent and suspended cells were then allowed to grow at 37 °C with 95% humidity and 5% CO2 for 24 h and 30 min, respectively. The cytotoxicity assay was initiated by adding an equal volume of cell culture medium containing tested compound at predetermined concentrations. Following 48 h of exposure, cell viability was determined using MTT assay for adherent cells[51],[52]or XTT assay for suspeended cells. Briefly, for adherent cells, 100 µL of the MTT reagent was added to each well, and the microtiter plates were further incubated for 2.5–4 h. The medium was subsequently replaced with 100 µL of DMSO to dissolve the purple formazan before the absorbance at 550 nm was measured using a microplate reader (a SpectraMax Plus 384) with a reference wavelength of 650 nm. For suspended cells, 75 µL of the XTT reagent was added to each well, and the cells were further incubated for 4 h. Afterwards, the absorbance of orange formazan at 492 nm was measured with a reference wavelength of 690 nm using a microplate reader.

[2] = test system: HeLa (cervical carcinoma); test: Cytotoxic activity assay (MTT); type: cell-based, human; settings: for IC50: Homo sapiens, 48 h exposure, MTT, read-out: Cell lines, IC50 (μM) HeLa; for Selectivity Index (SI) values HeLa: SI = IC50 normal cell (MRC-5)/ IC50 cancer cell
Description: as §1, §2

[3] = test system: HuCCA-1 (cholangiocarcinoma derived from a patient); test: Cytotoxic activity assay (MTT); type: cell-based, human; settings: for IC50: Homo sapiens, HuCC-A1, 48 h exposure, MTT, read-out: Cell lines, IC50 (μM) HuCCA-1; for Selectivity Index (SI) values HuCCA-1: SI = IC50 normal cell (MRC-5)/ IC50 cancer cell
Description: as §1, §2

[4] = test system: A549 (lung adenocarcinoma); test: Cytotoxic activity assay (MTT); type: cell-based, human; settings: for IC50: Homo sapiens, A549, 48 h exposure, MTT, read-out: Cell lines, IC50 (μM) A549; for Selectivity Index (SI) values A549: SI = IC50 normal cell (MRC-5)/ IC50 cancer cell
Description: as §1, §2

[5] = test system: T-47D (hormone-dependent breast cancer); test: Cytotoxic activity assay (MTT); type: cell-based, human; settings: for IC50: Homo sapiens, T47D, 48 h exposure, MTT, read-out: Cell lines, IC50 (μM) T47-D; for Selectivity Index (SI) values T47-D: SI = IC50 normal cell (MRC-5)/ IC50 cancer cell
Description: as §1, §2

[6] = test system: HepG2 (hepatocellular carcinoma); test: Cytotoxic activity assay (MTT); type: cell-based, human; settings: for IC50: Homo sapiens, HepG2, 48 h exposure, MTT, read-out: Cell lines, IC50 (μM) HepG2; for Selectivity Index (SI) values HepG2: SI = IC50 normal cell (MRC-5)/ IC50 cancer cell
Description: as §1, §2

[7] = test system: MDA-MB-231 (triple-negative breast cancer); test: Cytotoxic activity assay (MTT); type: cell-based, human; settings: for IC50: Homo sapiens, MDA-MB-231, 48 h exposure, MTT, read-out: Cell lines, IC50 (μM) MDA-MB-231; for Selectivity Index (SI) values MDA-MB-231: SI = IC50 normal cell (MRC-5)/ IC50 cancer cell
Description: as §1, §2

[8] = test system: H69AR (multidrug-resistant small cell lung carcinoma); test: Cytotoxic activity assay (MTT); type: cell-based, human; settings: for IC50: Homo sapiens, H69AR, 48 h exposure, MTT, read-out: Cell lines, IC50 (μM) H69AR; for Selectivity Index (SI) values H69AR: SI = IC50 normal cell (MRC-5)/ IC50 cancer cell
Description: as §1, §2

[9] = test system: HL-60 (acute promyelocytic leukemia); test: Cytotoxic activity assay (XTT); type: cell-based, human; settings: for IC50: Homo sapiens, HL-60, 48 h exposure, XTT, read-out: Cell lines, IC50 (μM) HL-60; for Selectivity Index (SI) values HL-60: SI = IC50 normal cell (MRC-5)/ IC50 cancer cell
Description: as §1, §2

[10] = test system: MOLT-3 (T cell acute lymphoblastic leukemia); test: Cytotoxic activity assay (XTT); type: cell-based, human; settings: for IC50: Homo sapiens, MOLT-3, 48 h exposure, XTT, read-out: Cell lines, IC50 (μM) MOLT-3; for Selectivity Index (SI) values MOLT-3: SI = IC50 normal cell (MRC-5)/ IC50 cancer cell
Description: as §1, §2

| Compound | IC50 [1] | IC50 [2] | Selectivity Index (SI) values HeLa [2] | IC50 [3] | Selectivity Index (SI) values HuCCA-1 [3] | IC50 [4] | Selectivity Index (SI) values A549 [4] | IC50 [5] | Selectivity Index (SI) values T47-D [5] | IC50 [6] | Selectivity Index (SI) values HepG2 [6] | IC50 [7] | Selectivity Index (SI) values MDA-MB-231 [7] | IC50 [8] | Selectivity Index (SI) values H69AR [8] | IC50 [9] | Selectivity Index (SI) values HL-60 [9] | IC50 [10] | Selectivity Index (SI) values MOLT-3 [10] |
| --- | --- | --- | --- | --- | --- | --- | --- | --- | --- | --- | --- | --- | --- | --- | --- | --- | --- | --- | --- |
| C=C1CC[C@H]2C(C)(C)CCC[C@]2(C)[C@H]1CC/C(C)=C/C(=O)NO [Compound 4j, (E)-N-Hydroxy-3-methyl-5-((1S,4aS,8aS)-5,5,8a-trimethyl-2-methylene-decahydronaphthalen-1-yl)pent-2-enamide] | > 120 µM | > 120 µM | 1.0 | > 120 µM | 1.0 | > 120 µM | 1.0 | > 120 µM | 1.0 | > 120 µM | 1.0 | > 120 µM | 1.0 | > 120 µM | 1.0 | > 120 µM | 1.0 | > 120 µM | 1.0 |
| C=C1CC[C@H]2C(C)(C)CCC[C@]2(C)[C@H]1CC/C(C)=C/C(=O)NCc1ccccc1 [Compound 4f, (E)-N-Benzyl-3-methyl-5-((1S,4aS,8aS)-5,5,8a-trimethyl-2-methylene-decahydronaphthalen-1-yl)pent-2-enamide] | > 120 µM | > 120 µM | 1.0 | > 120 µM | 1.0 | > 120 µM | 1.0 | > 120 µM | 1.0 | > 120 µM | 1.0 | > 120 µM | 1.0 | > 120 µM | 1.0 | 87.3 ± 8.47 µM | 1.5 | > 120 µM | 1.0 |
| C=C1CC[C@H]2C(C)(C)CCC[C@]2(C)[C@H]1CC/C(C)=C/C(=O)NCCCCCCCC [Compound 4d, (E)-3-Methyl-N-octyl-5-((1S,4aS,8aS)-5,5,8a-trimethyl-2-methylenedecahydronaphthalen-1-yl)pent-2-enamide] | > 120 µM | > 120 µM | 1.0 | > 120 µM | 1.0 | > 120 µM | 1.0 | > 120 µM | 1.0 | > 120 µM | 1.0 | > 120 µM | 1.0 | > 120 µM | 1.0 | > 120 µM | 1.0 | > 120 µM | 1.0 |
| C=C1CC[C@H]2C(C)(C)CCC[C@]2(C)[C@H]1CC/C(C)=C/C(=O)N1CCCCC1 [Compound 4n, (E)-3-Methyl-1-(piperidin-1-yl)-5-((1S,4aS,8aS)-5,5,8a-trimethyl-2-methylenedecahydronaphthalen-1-yl)pent-2-en-1-one] | 38.4 ± 1.2 µM | 38.91 ± 0.13 µM | 1.0 | 41.25 ± 0.19 µM | 0.9 | 41.7 ± 1.43 µM | 0.9 | 73 ± 3.31 µM | 0.5 | 32.2 ± 1.37 µM | 1.2 | 33.9 ± 1.93 µM | 1.1 | 52.31 ± 0.42 µM | 0.7 | 20.5 ± 0.5 µM | 1.9 | 21 ± 0.32 µM | 1.8 |
